Values of other authors, collected in patent US6423339B1, “Liquisolid systems and methods of preparing same” (priority 1996, dated 2002).

Assays:
[1] = diuretic

Row | Compound | Solubility in alcohol (descriptive) | Solubility in chloroform (descriptive) | Volume of alcohol in which 1 gram of drug is soluble (per 1 gram of drug) | Volume of chloroform in which 1 gram of drug is soluble (per 1 gram of drug) | Solubility in water (descriptive) | other results
1 | CCOC(=O)C(C)(C)Oc1ccc(Cl)cc1 [Clofibrate] | soluble | soluble |  |  | insoluble (1 part solute into 10,000 or more parts of water) | Solubility in other common organic solvents (descriptive): soluble; Stability (descriptive) (liquid drug): stable
2 | Cc1ccc(C)c(OCCCC(C)(C)C(=O)O)c1 [Gemflbrozil] |  |  |  |  | practically water-insoluble (1 part solute into 10,000 or more parts of water) | 
3 | NS(=O)(=O)c1cc2c(cc1Cl)NCNS2(=O)=O [Hydrochlorothiazide] |  |  |  |  |  | Potency relative to chlorothiazide [1]: 10 times

Second part, led by results:

Row | Solubility in alcohol (descriptive) | Solubility in chloroform (descriptive) | Volume of alcohol in which 1 gram of drug is soluble (per 1 gram of drug) | Volume of chloroform in which 1 gram of drug is soluble (per 1 gram of drug) | Compound | Solubility in water (descriptive) | other results
4 |  |  | 92.5 mL | more than 10,000 ml | CN1C(CCl)Nc2cc(Cl)c(S(N)(=O)=O)cc2S1(=O)=O (centres unmarked) [Methyclothiazide] |  | Solubility in acetone (descriptive): freely soluble; pka: 9.4; Volume of ether in which 1 gram of drug is soluble (per 1 gram of drug): 2,700 ml; Volume of water in which 1 gram of drug is soluble (per 1 gram of drug): more than 10,000 ml
5 |  |  | 150 mL | 200 mL | C[C@]12C=CC(=O)C=C1CC[C@@H]1[C@@H]2C(=O)C[C@@]2(C)[C@H]1CC[C@]2(O)C(=O)CO [Prednisone] | very slightly soluble | 
6 | soluble | freely soluble |  |  | CC(=O)S[C@@H]1CC2=CC(=O)CC[C@]2(C)[C@H]2CC[C@@]3(C)[C@@H](CC[C@@]34CCC(=O)O4)[C@H]12 [Spironolactone] | practically insoluble | Solubility in fixed oils (descriptive): slightly soluble
